From ChEMBL document CHEMBL4715697, “Synthesis and biological activity of benzamide DNA minor groove binders” (2016)

Legend:
Type in all cases: functional
SN12C = assay: Growth inhibition of human SN12C cells assessed as cell growth at 0.01 uM incubated for 48 hrs by sulforhodamine B assay relative to control; conditions: read-out: Activity
COLO 205 [1] = assay: Growth inhibition of human COLO 205 cells assessed as cell growth at 0.01 uM incubated for 48 hrs by sulforhodamine B assay relative to control; conditions: read-out: Activity
HCT-15 [2] = assay: Growth inhibition of human HCT-15 cells assessed as cell growth at 100 uM incubated for 48 hrs by sulforhodamine B assay relative to control; conditions: read-out: Activity
SF-539 = assay: Growth inhibition of human SF-539 cells assessed as cell growth at 0.1 uM incubated for 48 hrs by sulforhodamine B assay relative to control; conditions: read-out: Activity
SR = assay: Growth inhibition of human SR cells incubated for 48 hrs by sulforhodamine B assay
Malme-3M = assay: Growth inhibition of human Malme-3M cells assessed as cell growth at 100 uM incubated for 48 hrs by sulforhodamine B assay relative to control; conditions: read-out: Activity
UO-31 [3] = assay: Growth inhibition of human UO-31 cells incubated for 48 hrs by sulforhodamine B assay
HCT-15 [4] = assay: Growth inhibition of human HCT-15 cells assessed as cell growth at 0.01 uM incubated for 48 hrs by sulforhodamine B assay relative to control; conditions: read-out: Activity
IGROV-1 = assay: Growth inhibition of human IGROV-1 cells assessed as cell growth at 100 uM incubated for 48 hrs by sulforhodamine B assay relative to control; conditions: read-out: Activity
UO-31 [5] = assay: Growth inhibition of human UO-31 cells assessed as cell growth at 0.1 uM incubated for 48 hrs by sulforhodamine B assay relative to control; conditions: read-out: Activity
COLO 205 [6] = assay: Growth inhibition of human COLO 205 cells incubated for 48 hrs by sulforhodamine B assay
U-251 = assay: Growth inhibition of human U-251 cells assessed as cell growth at 100 uM incubated for 48 hrs by sulforhodamine B assay relative to control; conditions: read-out: Activity
UO-31 [7] = assay: Growth inhibition of human UO-31 cells assessed as cell growth at 0.01 uM incubated for 48 hrs by sulforhodamine B assay relative to control; conditions: read-out: Activity
CCRF-CEM = assay: Growth inhibition of human CCRF-CEM cells assessed as cell growth at 0.1 uM incubated for 48 hrs by sulforhodamine B assay relative to control; conditions: read-out: Activity
OVCAR-5 = assay: Growth inhibition of human OVCAR-5 cells assessed as cell growth at 0.01 uM incubated for 48 hrs by sulforhodamine B assay relative to control; conditions: read-out: Activity
SF-295 = assay: Growth inhibition of human SF-295 cells incubated for 48 hrs by sulforhodamine B assay
NCI-H23 = assay: Growth inhibition of human NCI-H23 cells assessed as cell growth at 0.01 uM incubated for 48 hrs by sulforhodamine B assay relative to control; conditions: read-out: Activity
CAKI-1 = assay: Growth inhibition of human CAKI-1 cells incubated for 48 hrs by sulforhodamine B assay
UACC-62 [8] = assay: Growth inhibition of human UACC-62 cells incubated for 48 hrs by sulforhodamine B assay
T47D = assay: Growth inhibition of human T47D cells assessed as cell growth at 1 uM incubated for 48 hrs by sulforhodamine B assay relative to control; conditions: read-out: Activity
COLO 205 [9] = assay: Growth inhibition of human COLO 205 cells assessed as cell growth at 0.1 uM incubated for 48 hrs by sulforhodamine B assay relative to control; conditions: read-out: Activity
SK-MEL-2 [10] = assay: Growth inhibition of human SK-MEL-2 cells assessed as cell growth at 100 uM incubated for 48 hrs by sulforhodamine B assay relative to control; conditions: read-out: Activity
MDA-MB-435 = assay: Growth inhibition of human MDA-MB-435 cells incubated for 48 hrs by sulforhodamine B assay
EKVX = assay: Growth inhibition of human EKVX cells assessed as cell growth at 0.01 uM incubated for 48 hrs by sulforhodamine B assay relative to control; conditions: read-out: Activity
RXF 393 = assay: Growth inhibition of human RXF 393 cells assessed as cell growth at 100 uM incubated for 48 hrs by sulforhodamine B assay relative to control; conditions: read-out: Activity
HCT-116 = assay: Growth inhibition of human HCT-116 cells assessed as cell growth at 100 uM incubated for 48 hrs by sulforhodamine B assay relative to control; conditions: read-out: Activity
M14 = assay: Growth inhibition of human M14 cells assessed as cell growth at 0.01 uM incubated for 48 hrs by sulforhodamine B assay relative to control; conditions: read-out: Activity
HCC 2998 = assay: Growth inhibition of human HCC 2998 cells assessed as cell growth at 0.1 uM incubated for 48 hrs by sulforhodamine B assay relative to control; conditions: read-out: Activity
MCF7 = assay: Growth inhibition of human MCF7 cells incubated for 48 hrs by sulforhodamine B assay
UACC-62 [11] = assay: Growth inhibition of human UACC-62 cells assessed as cell growth at 100 uM incubated for 48 hrs by sulforhodamine B assay relative to control; conditions: read-out: Activity
SK-MEL-2 [12] = assay: Growth inhibition of human SK-MEL-2 cells incubated for 48 hrs by sulforhodamine B assay
PC-3 = assay: Growth inhibition of human PC-3 cells assessed as cell growth at 100 uM incubated for 48 hrs by sulforhodamine B assay relative to control; conditions: read-out: Activity
SF-268 = assay: Growth inhibition of human SF-268 cells assessed as cell growth at 0.01 uM incubated for 48 hrs by sulforhodamine B assay relative to control; conditions: read-out: Activity
[13] = read-out: LC50 (the source's name)
[14] = read-out: pLC50 (the source's name) (converted)

CC(=O)Nc1cc(CCl)cc(NC(=O)c2ccc(C(=O)Nc3cccc(NC(=O)CCCN(C)C)c3)cc2)c1
103%: growth at 0.1 µM (SF-539)
100%: growth at 100 µM (IGROV-1) | growth at 0.01 µM (SF-268)
> 100 µM: GI50 (SR; read-out: GI50) | CC50 (SR; [13]) | TGI (SR; read-out: TGI) | GI50 (SR; read-out: pGI50 (converted)) | CC50 (SR; [14]) | TGI (SR; read-out: pTGI) | GI50 (UO-31 [3]; read-out: GI50) | CC50 (UO-31 [3]; [13]) | TGI (UO-31 [3]; read-out: TGI) | GI50 (UO-31 [3]; read-out: pGI50 (converted)) | CC50 (UO-31 [3]; [14]) | TGI (UO-31 [3]; read-out: pTGI) | GI50 (COLO 205 [6]; read-out: GI50) | LC50 (COLO 205 [6]; read-out: LC50) | TGI (COLO 205 [6]; read-out: TGI) | GI50 (COLO 205 [6]; read-out: pGI50 (converted)) | LC50 (COLO 205 [6]; read-out: pLC50 (converted)) | TGI (COLO 205 [6]; read-out: pTGI) | LC50 (SF-295; read-out: LC50) | TGI (SF-295; read-out: TGI) | LC50 (SF-295; read-out: pLC50 (converted)) | TGI (SF-295; read-out: pTGI) | GI50 (CAKI-1; read-out: GI50) | CC50 (CAKI-1; [13]) | TGI (CAKI-1; read-out: TGI) | GI50 (CAKI-1; read-out: pGI50 (converted)) | CC50 (CAKI-1; [14]) | TGI (CAKI-1; read-out: pTGI) | GI50 (UACC-62 [8]; read-out: GI50) | CC50 (UACC-62 [8]; [13]) | TGI (UACC-62 [8]; read-out: TGI) | GI50 (UACC-62 [8]; read-out: pGI50 (converted)) | CC50 (UACC-62 [8]; [14]) | TGI (UACC-62 [8]; read-out: pTGI) | GI50 (MDA-MB-435; read-out: GI50) | LC50 (50% lethal concentration) (MDA-MB-435; read-out: LC50) | TGI (MDA-MB-435; read-out: TGI) | GI50 (MDA-MB-435; read-out: pGI50 (converted)) | LC50 (50% lethal concentration) (MDA-MB-435; read-out: pLC50 (converted)) | TGI (MDA-MB-435; read-out: pTGI) | CC50 (MCF7; [13]) | TGI (MCF7; read-out: TGI) | CC50 (MCF7; [14]) | TGI (MCF7; read-out: pTGI) | GI50 (SK-MEL-2 [12]; read-out: GI50) | CC50 (SK-MEL-2 [12]; [13]) | TGI (SK-MEL-2 [12]; read-out: TGI) | GI50 (SK-MEL-2 [12]; read-out: pGI50 (converted)) | CC50 (SK-MEL-2 [12]; [14]) | TGI (SK-MEL-2 [12]; read-out: pTGI)
30.1 µM: GI50 (MCF7; read-out: GI50)
108%: growth at 0.1 µM (COLO 205 [9]) | growth at 0.01 µM (M14)
92%: growth at 0.01 µM (OVCAR-5)
38 µM: GI50 (SF-295; read-out: pGI50 (converted))
93%: growth at 0.01 µM (EKVX)
113%: growth at 0.1 µM (CCRF-CEM)
37.8 µM: GI50 (SF-295; read-out: GI50)
80%: growth at 100 µM (Malme-3M)
82%: growth at 100 µM (HCT-116)
97%: growth at 0.1 µM (UO-31 [5])
88%: growth at 100 µM (PC-3)
95%: growth at 100 µM (U-251)
30.2 µM: GI50 (MCF7; read-out: pGI50 (converted))
116%: growth at 100 µM (SK-MEL-2 [10])
104%: growth at 0.01 µM (SN12C)
94%: growth at 0.01 µM (HCT-15 [4]) | growth at 0.01 µM (UO-31 [7]) | growth at 1 µM (T47D) | growth at 0.1 µM (HCC 2998)
84%: growth at 100 µM (HCT-15 [2]) | growth at 100 µM (UACC-62 [11])
96%: growth at 0.01 µM (NCI-H23) | growth at 100 µM (RXF 393)
112%: growth at 0.01 µM (COLO 205 [1])
